In ChEMBL document CHEMBL4387727, “Novel triazine-based pyrimidines suppress glomerular mesangial cells proliferation and matrix protein accumulation through a ROS-dependent mechanism in the diabetic milieu” (2019) one finds Activity data, which are given here for eight molecules.

Calls of active or inactive are those of the source. No cut-off for these calls is given here.

What all share (type): functional
Test [1] is described as follows: Antioxidant activity in serum deprived rat Glomerular mesangial cells assessed as EOH level by measuring EOH/DHE level in presence of 25 mM glucose at 0.5 uM after 48 hrs by DHE based HPLC analysis (reference value: 654.98 +/- 32.31 nmol/micromol).
Test [2] is described as follows: Nephroprotective activity in serum deprived rat Glomerular mesangial cells assessed as fibronectin protein expression in presence of 25 mM glucose at 5 uM after 48 hrs by Western blot analysis (reference value: 270.11 +/- 19.17%).
A short description of test [3]: Nephroprotective activity in serum deprived rat Glomerular mesangial cells assessed as fibronectin protein expression in presence of 25 mM glucose at 2.5 uM after 48 hrs by Western blot analysis (reference value: 270.11 +/- 19.17%). Background: A western blot detects proteins with antibodies after separation by electrophoresis.
The nature of test [4]: Antioxidant activity in serum deprived rat Glomerular mesangial cells assessed as EOH level by measuring EOH/DHE level in presence of 25 mM glucose at 2.5 uM after 48 hrs by DHE based HPLC analysis (reference value: 654.98 +/- 32.31 nmol/micromol).
A short description of test [5]: Antioxidant activity in serum deprived rat Glomerular mesangial cells assessed as EOH level by measuring EOH/DHE level in presence of 25 mM glucose at 5 uM after 48 hrs by DHE based HPLC analysis (reference value: 654.98 +/- 32.31 nmol/micromol).
Test [6] is described as follows: Nephroprotective activity in serum deprived rat Glomerular mesangial cells assessed as fibronectin protein expression in presence of 25 mM glucose at 0.5 uM after 48 hrs by Western blot analysis (reference value: 270.11 +/- 19.17%).
Test [7] is described as follows: Nephroprotective activity in serum deprived rat Glomerular mesangial cells assessed as fibronectin protein expression in presence of 25 mM glucose at 1 uM after 48 hrs by Western blot analysis (reference value: 270.11 +/- 19.17%).
A short description of test [8]: Antioxidant activity in serum deprived rat Glomerular mesangial cells assessed as EOH level by measuring EOH/DHE level in presence of 25 mM glucose at 1 uM after 48 hrs by DHE based HPLC analysis (reference value: 654.98 +/- 32.31 nmol/micromol).
The species named for test [9] is Rattus norvegicus. Briefly: Antioxidant activity in serum deprived rat Glomerular mesangial cells assessed as reduction in NADPH oxidase dependent super oxide generation in presence of 25 mM glucose at 1 uM after 48 hrs by Lucigenin-enhanced chemiluminescence method.
The species entered for test [10] is Rattus norvegicus. As to the kind of experiment: Antioxidant activity in serum deprived rat Glomerular mesangial cells assessed as reduction in NADPH oxidase dependent super oxide generation in presence of 25 mM glucose at 0.5 uM after 48 hrs by Lucigenin-enhanced chemiluminescence method.
For test [11], the species on record is Rattus norvegicus. As to the kind of experiment: Antiproliferative activity against serum deprived rat Glomerular mesangial cells assessed as reduction in 25 mM glucose-induced cell proliferation at 0.5 uM after 48 hrs by MTT assay. Background: Formazan colour is commonly taken as a measure of viable cells.
For test [12], the species on record is Rattus norvegicus. As to the kind of experiment: Antiproliferative activity against serum deprived rat Glomerular mesangial cells assessed as reduction in 25 mM glucose-induced cell proliferation at 1 uM after 48 hrs by MTT assay.

Take `Cc1cn(CCC(=O)NNc2nc(Cl)nc(NNC(=O)CCn3cc(C)c(=O)[nH]c3=O)n2)c(=O)[nH]c1=O`: the Activity in test [1] was 651.54 nmol/umol; in [2], 170.26%; in test [3], 189.91%; in test [4], 512.62 nmol/umol; in [5], 413.96 nmol/umol; in test [6], 231.19%. For the same molecule, the Activity in test [7] turned out to be 200.79%; in test [8] it was 671.14 nmol/umol.

For the molecule `O=C(CCn1ccc(=O)[nH]c1=O)NNc1nc(NNC(=O)CCn2ccc(=O)[nH]c2=O)nc(NNC(=O)CCn2ccc(=O)[nH]c2=O)n1`, the outcome in the test listed under Rattus norvegicus [9], in the test filed under Rattus norvegicus [10], in the test listed under Rattus norvegicus [11] and in the test listed under Rattus norvegicus [12] was Active. Moreover, the Activity in test [1] stood at 359.07 nmol/umol; in test [2], 121.19%; in [3], 142.45%; in test [4] it was 198.48 nmol/umol; in test [5], 210.93 nmol/umol; in [6], 191.33%. The results for the Activity in test [7] and in test [8] were 167.88% and 274.37 nmol/umol, respectively.

Turning to `Cc1cn(CCC(=O)NNc2nc(NNC(=O)CCn3ccc(=O)[nH]c3=O)nc(NNC(=O)CCn3cc(C)c(=O)[nH]c3=O)n2)c(=O)[nH]c1=O`, the outcome in the test filed under Rattus norvegicus [9], in the test listed under Rattus norvegicus [10], in the test filed under Rattus norvegicus [11] and in the test filed under Rattus norvegicus [12] was Active. Besides, the Activity in [1] was determined as 323.17 nmol/umol; in test [2] it was 121.34%; in test [3], 127.09%; in test [4] it was 249.97 nmol/umol; in [5], 240.46 nmol/umol; in test [6], 114.54%. In addition, the Activity is reported as 135.87% in [7] and 257.69 nmol/umol in test [8].

Consider `O=C(CCn1ccc(=O)[nH]c1=O)NNc1nc(Cl)nc(NNC(=O)CCn2ccc(=O)[nH]c2=O)n1`, for which the Activity in test [1] was 660.36 nmol/umol; in test [2], 179.47%; in test [3] it was 219.47%; in [4], 661.09 nmol/umol; in test [5], 672.32 nmol/umol; in test [6], 267.45%. Besides, the Activity in test [7] was 280.24%; in test [8], 648.96 nmol/umol.

With `NNC(=O)CCn1ccc(O)nc1=O`, the Activity is reported as 666.94 nmol/umol in test [1]; 227.83% in test [2]; 241.91% in test [3]; 654.48 nmol/umol in [4]; 618.26 nmol/umol in test [5]; 268.71% in test [6]. Also, the Activity is given as 265.72% in test [7] and 671.47 nmol/umol in [8].

Turning to `Cc1cn(CCC(=O)NN)c(=O)nc1O`, the Activity stood at 701.09 nmol/umol in test [1]; 239.46% in test [2]; 251.59% in [3]; 683.28 nmol/umol in test [4]; 710.14 nmol/umol in test [5]; 289.17% in [6]. Besides, the Activity in test [7] is recorded as 272.26%; in test [8], 658.92 nmol/umol.

Consider `Cc1cn(CCC(=O)NNc2nc(NNC(=O)CCn3ccc(=O)[nH]c3=O)nc(NNC(=O)CCn3ccc(=O)[nH]c3=O)n2)c(=O)[nH]c1=O`, for which the result in the test listed under Rattus norvegicus [9], in the test listed under Rattus norvegicus [10], in the test filed under Rattus norvegicus [11] and in the test filed under Rattus norvegicus [12] was Active. The Activity in test [1] was 454.37 nmol/umol; in test [2] it was 151.18%; in test [3] it was 143.41%; in test [4] it was 231.15 nmol/umol; in test [5], 217.62 nmol/umol; in [6], 178.33%. Further, the Activity in test [7] is 145.64%; in test [8] it was 306.28 nmol/umol.

`Cc1cn(CCC(=O)NNc2nc(NNC(=O)CCn3cc(C)c(=O)[nH]c3=O)nc(NNC(=O)CCn3cc(C)c(=O)[nH]c3=O)n2)c(=O)[nH]c1=O`: the outcome in the test listed under Rattus norvegicus [9], in the test filed under Rattus norvegicus [10], in the test listed under Rattus norvegicus [11] and in the test listed under Rattus norvegicus [12] was Active. Moreover, the Activity in test [1] was determined as 404.34 nmol/umol; in [2], 102.99%; in test [3] it was 108.35%; in [4], 200.36 nmol/umol; in test [5] it was 224.71 nmol/umol; in [6], 182.76%. Further, the Activity is reported as 141.91% in [7] and 305.77 nmol/umol in test [8].
